Values quoted from earlier work, collected in patent US11154520B2, “Combination therapy for metastatic cancer” (General Oncology, Inc., priority 2015, dated 2021).

Settings: decomposes intravascularly within seconds to 2,3-diketogulonic acid

Question: Which stability in blood does the source give for `O=C1O[C@H]([C@@H](O)CO)C(=O)C1=O` [DHA, (5R)-5-[(1S)-1,2-dihydroxyethyl]oxolane-2,3,4-trione] here?
Answer: Its stability in blood is “unstable”.
